Data on 18 molecules can be found in patent US20100098737A1, “METHODS AND COMPOSITIONS FOR DELIVERY OF GLYCOPEPTIDE ANTIBIOTICS TO MEDICAL DEVICE SURFACES” (priority 2008, published 2010).

Read-outs that look alike come from different tables or passages of the source. *1 amine or outer side, *2 acyl side, *3 side chain or, on linkers, in order; H or OH if unused. Bridges are numbered along the chain shown (N, C = ends). Where no end group is shown, it is not given here. [ ]: non-standard residue; d: D form. (miniPEG)2 = linker of two miniPEG units, each HN-CH2CH2-O-CH2CH2-O-CH2-C(=O), O=C(COCCOCCN[*:1])NCCOCCOCC(=O)[*:2]

Assay [1] in a line: binding assay: biotinylated synthetic peptide on streptavidin plate, titrated with biotinylated glycopeptide antibiotic. Here is the method:
A typical binding assay for glycopeptide antibiotic was performed according to the following procedure. Briefly, synthetic peptides comprising an amino acid sequence to be characterized for binding were biotinylated to facilitate immobilization on streptavidin-coated 96-well plates. The microtiter plates were coated with streptavidin by adding 50 μl of a 10 μg/ml streptavidin solution in 0.1M NaHCO3, and incubating the plates for at least 3 hours. The plate wells were blocked by adding 150 μl of a 1% BSA solution in 0.1 NaHCO3 with incubation for at least 2 hours, and the plates were stored at 4° C. until needed. Before use, the streptavidin plates were washed extensively in buffer-T. Added per well was peptide (100 μl 0.1 μM peptide in buffer-T), and then incubated for 30 minutes at room temperature with shaking. 200 μl of 0.5 mM biotin in buffer-T was added to block the remaining streptavidin sites, and plates were incubated for 15 minutes at room temperature. Plates were then washed with buffer-T to remove the excess biotin and peptide. Serial dilutions of biotinylated glycopeptide antibiotic in buffer-T were added (100 μl) to each well, representing a range of concentrations between 100 pM and 100 μM. Plates were incubated for 30 minutes at room temperature with shaking prior to washing several times with buffer-T. Glycopeptide antibiotic was then detected by adding 100 μl of a diluted streptavidin-alkaline phosphatase conjugate to each well and incubated at room temperature for 30 minutes. Excess conjugate was removed by repeated washes with buffer-T, and the amount of alkaline phosphatase remaining in the well was detected using a pNPP (para-nitrophenylphosphate) colorimetric enzymatic assay. The relative amount of glycopeptide antibiotic captured by the peptides was determined by measuring the absorbance at 405 nm of the colored product of the alkaline phosphatase reaction. The EC50 was determined for each peptide relative to the binding affinity for the glycopeptide antibiotic used in the assay, as shown in Table 1 (with vancomycin as a representative glycopeptide antibiotic).
(§1) A typical binding assay for glycopeptide antibiotic was performed according to the following procedure. The concentrations of the alkaline-phosphatase linked variant peptides were normalized to equal levels based on the alkaline-phosphatase activity as determined in a kinetic assay with the alkaline-phosphatase specific chromogenic substrate p-nitrophenyl phosphate (p-NPP). A streptavidin coated microtiter plate was coated with biotinylated vancomycin. Serial dilutions of normalized alkaline-phosphatase linked peptides were allowed to bind to the immobilized vancomycin and detected by addition of the alkaline-phosphatase specific chromogenic substrate p-NPP. Relative affinity for peptide binding to the immobilized vancomycin was determined by measuring the absorbance at 405 nm of the colored product of the alkaline phosphatase reaction. […] EC50 values for the synthetic peptides binding to vancomycin were determined as described in Example 1 and are shown in Table 3. Preferred are peptides that bind to glycopeptide antibiotic with binding affinity of EC50 of less than or equal to about 1 μM, and more preferably, in the nanomolar range (e.g., <0.1 μM).

Assay [2] can be described thus: binding of serially diluted alkaline-phosphatase linked peptides to immobilized biotinylated vancomycin. The note with it: absorbance at 405 nm.
Source text: From the peptide amino acid sequence […] (SEQ ID NO: 1) additional peptides were designed and expressed in the bacterial expression system described herein to further evaluate structure-function relationships. A truncated peptide comprising the amino acid sequence of SEQ ID NO:9 (STCLIDMYGVCH) was expressed and compared to a peptide comprising SEQ ID NO:1 for binding affinity for glycopeptide antibiotic. Also produced were a dimer of this truncated peptide (SEQ ID NO:10; […]), a D to A substitution (SEQ ID NO:11; STCLIAMYGVCH), a D to E substitution (SEQ ID NO:12; STCLIEMYGVCH), and a G to S substitution (SEQ ID NO:13; STCLIDMYSVCH). Relative binding strengths of these peptides and of other representative peptides to glycopeptide antibiotic were determined by EC50 values for binding to vancomycin or other glycopeptide antibiotic.
as §1

Assay [3] addresses vancomycin. The assay is described as follows: plate assay as in Example 1: synthetic peptide on streptavidin, biotinylated vancomycin titrated.
For assay [4], the target named is vancomycin. The assay is described as follows: plate assay: biotinylated peptide on streptavidin, biotinylated vancomycin titrated, streptavidin-AP detection.
The target in assay [5] is vancomycin. The assay is described as follows: titanium beads with 10 µM peptide composition and 200 µM vancomycin, washed, vancomycin eluted with HCl and measured by HPLC.
Where [6] appears, read: synthetic peptides, biotinylated vancomycin, read-out: EC50 (μM) for vancomycin binding.
Where [7] appears, read: synthetic peptides binding to vancomycin, read-out: EC50, binding to glycopeptide antibiotic.

Consider SCDMLFCENFSGSGNNWFS [compound 4], for which the 50% effective concentration (EC50) (in general, the concentration needed to bring the measured effect to its halfway point) in assay [1] (setting [6]) stood at 10 µM.
As to 13 (STCLIDMYSVCH) [compound 13], the “glycopeptide antibiotic binding of alkaline-phosphatase linked peptides” value (from here on “glycopeptide antibiotic binding”) in assay [2] is “no detectable glycopeptide antibiotic binding”.
Still for that read-out and setting: under 11 (STCLIAMYGVCH) [compound 11] stands “no detectable glycopeptide antibiotic binding”.
In the case of STCLIDMYGVCH [compound 9], the EC50 in assay [1] (setting [7]) was less than 1 µM. In addition, the “glycopeptide antibiotic binding” value in assay [2] was “displayed glycopeptide antibiotic binding”.
Taken in the same sequence, the figures for STCLIDMYGVCHSSCLIDMYGVCH [compound 10] were less than 1 µM and “displayed glycopeptide antibiotic binding”.
Turning to PCELIDMFGNDHCP [compound 3], the results for the 50% effective concentration (EC50) in assay [1] (setting [7]) and in assay [1] (setting [6]) were less than 0.1 µM and 0.82 µM, respectively.
Taken in the same sequence, the figures for CLFDIFGVCHSFDGAYDS [compound 2] were less than 0.1 µM and 0.06 µM.
12 (STCLIEMYGVCH) [compound 12]: the “glycopeptide antibiotic binding” value in assay [2] was “no detectable glycopeptide antibiotic binding”.
As for SLIDMYGVCHNFDGAYDS [compound 5], in assay [1] (setting [6]), the half-maximal effective concentration (EC50) turned out to be 10 µM.

B1: synthetic peptide comprising SEQ ID NO: 1 (peptide)
peptide: CLIDMYGVCHNFDGAYDS
modifications: cysteine pairing not given here; also: biotinylated, site not given here
As for B1, the half-maximal effective concentration (EC50) with vancomycin [3] was less than 100 nM; in the assay with vancomycin [4] it was 100 nM.

B2: synthetic peptide comprising SEQ ID NO: 4 (peptide)
peptide: SCDMLFCENFSGSGNNWFS
modifications: cysteine pairing not given here; also: biotinylated, site not given here
B2 gave an EC50 with vancomycin [4] of 10000 nM.

B3: peptide composition SEQ ID NO: 130 (peptide)
peptide: SSCLIDIYGVCHNFDAY[(miniPEG)2]HKKNNPKKKNKTRGSSK
modifications: disulfide 3-11 (inferred)
Regarding B3, the Picomoles vancomycin/cm^2 (picomoles/cm^2) in the assay with vancomycin [5] worked out at 83.

B4: synthetic peptide comprising SEQ ID NO: 10 (peptide)
peptide: STCLIDMYGVCHSSCLIDMYGVCH
modifications: cysteine pairing not given here; also: biotinylated, site not given here
As for B4, in the assay with vancomycin [3], the EC50 is less than 1000 nM.

B5: synthetic peptide comprising SEQ ID NO: 2 (peptide)
peptide: CLFDIFGVCHSFDGAYDS
modifications: cysteine pairing not given here; also: biotinylated, site not given here
On to B5, for which the concentration for a half-maximal effect (EC50) in the assay with vancomycin [3] is less than 100 nM; with vancomycin [4], 60 nM.

B6: synthetic peptide comprising SEQ ID NO: 9 (peptide)
peptide: STCLIDMYGVCH
modifications: cysteine pairing not given here; also: biotinylated, site not given here
Turning to B6, the EC50 with vancomycin [3] is less than 1000 nM.

B7: synthetic peptide comprising SEQ ID NO: 5 (peptide)
peptide: SLIDMYGVCHNFDGAYDS
modifications: also: biotinylated, site not given here
Consider B7, for which the concentration for a half-maximal effect (EC50) with vancomycin [4] amounted to 10000 nM.

B8: peptide composition SEQ ID NO: 131 (peptide)
peptide: SSCLIDIYGVCHNFDAY[(miniPEG)2]SSHRTNHKKNNPKKKNKTRGSSGK
modifications: disulfide 3-11 (inferred)
Turning to B8, in the assay with vancomycin [5], the Picomoles vancomycin/cm^2 (picomoles/cm^2) was 76.

B9: synthetic peptide comprising SEQ ID NO: 3 (peptide)
peptide: PCELIDMFGNDHCP
modifications: cysteine pairing not given here; also: biotinylated, site not given here
On to B9, for which the EC50 with vancomycin [3] is less than 100 nM; in the assay with vancomycin [4], 820 nM.
